Data set [1] can be described thus: logP determination by HPLC on a reversed-phase column (EEC Directive 79/831 Annex V.A8). The following applies: reversed-phase C18 HPLC column.
Protocol: Temperature: 40° C.; Mobile phases: 0.1% aqueous formic acid and acetonitrile; linear gradient from 10% acetonitrile to 90% acetonitrile.
Calibration was carried out using unbranched alkan-2-ones (comprising 3 to 16 carbon atoms) with known logP values (determination of the logP values by the retention times using linear interpolation between two successive alkanones). lambda-max-values were determined using UV-spectra from 200 nm to 400 nm and the peak values of the chromatographic signals.
For data set [2], the system named is TRZAS (Triticum aestivum). As to the kind of experiment: Drought stress test on crop plants, spray application, TRZAS. The following applies: for percent reduction in drought damage at 250 g/ha / pest or weed control at 25 g/ha / pest or weed control at 250 g/ha / percent reduction in drought damage at 25 g/ha: read-out: EF (TRZAS), efficacy = percentage reduction in the intensity of damage; for pest or weed control at 25 g/ha: dosage 25 g/ha. Format: in vivo. On the procedure: (§1) Seeds of monocotyledonous and dicotyledonous crop plants were placed in sandy loam in wood-fiber pots, covered with soil and cultivated in a greenhouse under good growth conditions. The test plants were treated at the early leaf stage (BBCH10-BBCH13). To ensure uniform water supply before commencement of stress, the potted plants were supplied with the maximum amount of water immediately beforehand by dam irrigation.
(§2) The inventive compounds, formulated in the form of wettable powders (WP) were sprayed onto the green parts of the plants as an aqueous suspension at an equivalent water application rate of 600 l/ha with addition of 0.2% wetting agent (agrotin). Substance application was followed immediately by stress treatment of the plants, for which the pots were transferred in plastic inserts in order to prevent subsequent, excessively rapid drying.
(§3) Drought stress was induced by gradual drying out under the following conditions: • “day”: 14 hours with illumination at ˜26° C. • “night”: 10 hours without illumination at ˜18° C.
(§4) The duration of the respective stress phases was guided mainly by the state of the untreated, stressed control plants and thus varies from crop to crop. It was ended (by re-irrigating or transfer to a greenhouse with good growth conditions) as soon as irreversible damage is observed on the untreated, stressed control plants. In the case of dicotyledonous crops, for example oilseed rape and soya, the duration of the drought stress phase was between 3 and 6 days, in the case of monocotyledonous crops, for example wheat, barley or corn, between 6 and 11 days.
(§5) The end of the stress phase was followed by an approx. 5-7-day recovery phase, during which the plants were once again kept under good growth conditions in a greenhouse. In order to rule out any influence of the effects observed by any fungicidal action of the test compounds, it was additionally ensured that the tests proceed without fungal infection and without infection pressure.
(§6) After the recovery phase had ended, the intensities of damage were rated visually compared to untreated, unstressed controls of the same age (in the case of drought stress) or the same growth stage (in the case of cold stress). The intensity of damage was first assessed as a percentage (100% =plants have died, 0% =like control plants). These values were then used to calculate the efficacy of the test compounds (=percentage reduction in the intensity of damage as a result of substance application) by the following formula:
(§7) [formula] • EF: efficacy (%) • DVus: damage value of the untreated, stressed control • […] with test compound
(§8) The tables below list mean values in each case from 2 or more independent experiments.
(§9) Tables A.1 to A.3 show, by way of example, the efficacies of compound of formula (I) as herein defined under drought stress and in conjunction with application to different crop plants, i.e. in table A.1 on application to BRSNS (Brassica napus), in table A.2 on application to TRZAS (Triticum aestivum) and in table A.3 on application to ZEAMX (Zea mays): […]

The test system of a further data set is BRSNS (Brassica napus). As to the kind of experiment: Drought stress test on crop plants, spray application, BRSNS. The conditions noted are these: mean of 2 or more experiments. In kind it is in vivo. On the procedure:
as §1, §2, §3, §4, §5, §6, §7, §8, §9

The subject of another data set is ZEAMX (Zea mays). Description: Drought stress test on crop plants, spray application, ZEAMX. Format: in vivo. The conditions noted are these: dosage 250 g/ha, mean of 2 or more experiments. On the procedure: as §1, §2
Drought stress was induced by gradual drying out under the following conditions: • “day”: 14 hours with illumination at ˜26° C. • “night”: 10 hours without illumination at ˜18° C. […]
After the recovery phase had ended, the intensities of damage were rated visually compared to untreated, unstressed controls of the same age (in the case of drought stress) or the same growth stage (in the case of cold stress). The intensity of damage was first assessed as a percentage (100% =plants have died, 0% =like control plants). […]

Where [3] appears, read: drought stress, dosage 250 g/ha, spray, mean of 2 or more experiments.
[4] abbreviates: drought stress, spray, mean of 2 or more experiments.

20 compounds from patent publication US20150250176A1, “METHOD FOR ENHANCING TOLERANCE TO ABIOTIC STRESS IN PLANTS USING CARBOXAMIDE OR THIOCARBOXAMIDE DERIVATIVES” (BAYER CROPSCIENCE AG, priority 2012, published 2015) can be followed below.

`Cn1nc(C(F)F)c(C(=O)N(Cc2c(Cl)cccc2C(F)(F)F)C2CC2)c1F` [Compound A17, N-[2-chloro-6-(trifluoromethyl)benzyl]-N-cyclopropyl-3-(difluoromethyl)-5-fluoro-1-methyl-1H-pyrazole-4-carboxamide] came in with a chromatographic logP in data set [1] of 3.46.

`Cn1nc(C(F)F)c(C(=O)N(Cc2c(C(F)(F)F)ccc(Cl)c2F)C2CC2)c1F` [Compound A18, N-[3-chloro-2-fluoro-6-(trifluoromethyl)benzyl]-N-cyclopropyl-3-(difluoromethyl)-5-fluoro-1-methyl-1H-pyrazole-4-carboxamide]: the chromatographic logP in data set [1] stood at 3.62.

For the compound “N-cyclopropyl-3-(difluoromethyl)-5-fluoro-N-(2-isopropylbenzyl)-1-methyl-1H-pyrazole-4-carbothio-amide [Compound A20]”, in data set [2] (setting [3]), the “EF (TRZAS), efficacy = percentage reduction in the intensity of damage” value is reported as >5%.

In turn, `Cn1nc(C(F)F)c(C(=O)N(Cc2ccccc2C2CC2)C2CC2)c1F` [Compound A2, N-cyclopropyl-N-(2-cyclopropylbenzyl)-3-(difluoromethyl)-5-fluoro-1-methyl-1H-pyrazole-4-carboxamide] came in with a chromatographic logP in data set [1] of 3.44. Also, the “EF (BRSNS), efficacy = percentage reduction in the intensity of damage” value with BRSNS (Brassica napus) (dosage 2.5 g/ha), with BRSNS (Brassica napus) (dosage 25 g/ha) and in the data set on BRSNS (Brassica napus) (dosage 250 g/ha) was >5% throughout.

With `Cc1ccc(C(F)(F)F)c(CN(C(=O)c2c(C(F)F)nn(C)c2F)C2CC2)c1` [Compound A16, N-cyclopropyl-3-(difluoromethyl)-5-fluoro-1-methyl-N-[5-methyl-2-(trifluoromethyl)benzyl]-1H-pyrazole-4-carboxamide], in data set [2], the percent reduction in drought damage at 250 g/ha was > 5%. The compound also displayed a chromatographic logP in data set [1] of 3.78.

Regarding `Cn1nc(C(F)F)c(C(=O)N(Cc2cc(F)ccc2C2CC2)C2CC2)c1F` [Compound A8, N-cyclopropyl-N-(2-cyclopropyl-5-fluorobenzyl)-3-(difluoromethyl)-5-fluoro-1-methyl-1H-pyrazole-4-carboxamide], the chromatographic logP in data set [1] came to 3.46. Moreover, the “EF (BRSNS), efficacy = percentage reduction in the intensity of damage” value in the data set with BRSNS (Brassica napus) (dosage 2.5 g/ha) is on record as >5%. The “EF (ZEAMX), efficacy = percentage reduction in the intensity of damage” value with ZEAMX (Zea mays) was >5%.

For `CCc1cc(C)c(C)cc1CN(C(=O)c1c(C(F)F)nn(C)c1F)C1CC1` [Compound A19, N-cyclopropyl-3-(difluoromethyl)-N-(2-ethyl-4,5-dimethylbenzyl)-5-fluoro-1-methyl-1H-pyrazole-4-carboxamide], in data set [2] (setting [4]), the pest or weed control at 25 g/ha is > 5%. The compound further registered a chromatographic logP in data set [1] of 4.04. In addition, in the data set on BRSNS (Brassica napus) (dosage 25 g/ha), the “EF (BRSNS), efficacy = percentage reduction in the intensity of damage” value was >5%.

`CC(C)c1cccc(F)c1CN(C(=O)c1c(C(F)F)nn(C)c1F)C1CC1` [Compound A10, N-cyclopropyl-3-(difluoromethyl)-5-fluoro-N-(2-fluoro-6-isopropylbenzyl)-1-methyl-1H-pyrazole-4-carboxamide] displayed a chromatographic logP in data set [1] of 3.65.

In the case of `CCc1ccc(C)cc1CN(C(=O)c1c(C(F)F)nn(C)c1F)C1CC1` [Compound A11, N-cyclopropyl-3-(difluoromethyl)-N-(2-ethyl-5-methylbenzyl)-5-fluoro-1-methyl-1H-pyrazole-4-carboxamide], the pest or weed control at 25 g/ha in data set [2] (setting [4]) was > 5%. In data set [1], this compound came in with a chromatographic logP of 3.7.

As to `CC(C)c1ccc(Cl)cc1CN(C(=O)c1c(C(F)F)nn(C)c1F)C1CC1` [Compound A5, N-(5-chloro-2-isopropylbenzyl)-N-cyclopropyl-3-(difluoromethyl)-5-fluoro-1-methyl-1H-pyrazole-4-carboxamide], the pest or weed control at 25 g/ha in data set [2] (setting [4]) was > 5%. Besides, in data set [2] (setting [3]), the pest or weed control at 250 g/ha is > 5%. In data set [1], this compound gave a chromatographic logP of 4.09. The “EF (BRSNS), efficacy = percentage reduction in the intensity of damage” value in the data set with BRSNS (Brassica napus) (dosage 25 g/ha) was >5%.

With `CCc1ccc(Cl)cc1CN(C(=O)c1c(C(F)F)nn(C)c1F)C1CC1` [Compound A4, N-(5-chloro-2-ethylbenzyl)-N-cyclopropyl-3-(difluoromethyl)-5-fluoro-1-methyl-1H-pyrazole-4-carboxamide], the percent reduction in drought damage at 25 g/ha in data set [2] was > 5%. In addition, the chromatographic logP in data set [1] was found to be 3.76.

`Cc1ccc(C2CC2)c(CN(C(=O)c2c(C(F)F)nn(C)c2F)C2CC2)c1` [Compound A13, N-cyclopropyl-N-(2-cyclopropyl-5-methylbenzyl)-3-(difluoromethyl)-5-fluoro-1-methyl-1H-pyrazole-4-carboxamide]: the chromatographic logP in data set [1] stood at 3.76.

In the case of `Cc1ccc(C(C)C)c(CN(C(=O)c2c(C(F)F)nn(C)c2F)C2CC2)c1` [Compound A12, N-cyclopropyl-3-(difluoromethyl)-5-fluoro-N-(2-isopropyl-5-methylbenzyl)-1-methyl-1H-pyrazole-4-carboxamide], the chromatographic logP in data set [1] came out at 3.99. Besides, the “EF (BRSNS), efficacy = percentage reduction in the intensity of damage” value with BRSNS (Brassica napus) (dosage 2.5 g/ha), in the data set on BRSNS (Brassica napus) (dosage 25 g/ha) and in the data set with BRSNS (Brassica napus) (dosage 250 g/ha) was >5% each time.

In the case of `Cn1nc(C(F)F)c(C(=O)N(Cc2cc(Cl)ccc2C(F)(F)F)C2CC2)c1F` [Compound A15, N-[5-chloro-2-(trifluoromethyl)benzyl]-N-cyclopropyl-3-(difluoromethyl)-5-fluoro-1-methyl-1H-pyrazole-4-carboxamide], the chromatographic logP in data set [1] worked out at 3.8.

For the compound `Cn1nc(C(F)F)c(C(=O)N(Cc2ccccc2C(C)(C)C)C2CC2)c1F` [Compound A3, N-(2-tert-butylbenzyl)-N-cyclopropyl-3-(difluoromethyl)-5-fluoro-1-methyl-1H-pyrazole-4-carboxamide], in data set [2], the percent reduction in drought damage at 25 g/ha was > 5% and the percent reduction in drought damage at 250 g/ha is > 5%. This compound gave a chromatographic logP in data set [1] of 4.06.

With `CCc1ccc(F)cc1CN(C(=O)c1c(C(F)F)nn(C)c1F)C1CC1` [Compound A6, N-cyclopropyl-3-(difluoromethyl)-N-(2-ethyl-5-fluorobenzyl)-5-fluoro-1-methyl-1H-pyrazole-4-carboxamide], the pest or weed control at 25 g/ha in data set [2] (setting [4]) was > 5%. For the same compound, the pest or weed control at 250 g/ha in data set [2] (setting [3]) is > 5%. In addition, in data set [1], the chromatographic logP turned out to be 3.41. Besides, the “EF (BRSNS), efficacy = percentage reduction in the intensity of damage” value with BRSNS (Brassica napus) (dosage 25 g/ha) is >5%.

For the compound `CC(C)c1ccccc1CN(C(=O)c1c(C(F)F)nn(C)c1F)C1CC1` [Compound A1, N-cyclopropyl-3-(difluoromethyl)-5-fluoro-N-(2-isopropylbenzyl)-1-methyl-1H-pyrazole-4-carboxamide], the chromatographic logP in data set [1] turned out to be 3.35.

In the case of `Cc1ccc(C(C)(C)C)c(CN(C(=O)c2c(C(F)F)nn(C)c2F)C2CC2)c1` [Compound A14, N-(2-tert-butyl-5-methylbenzyl)-N-cyclopropyl-3-(difluoromethyl)-5-fluoro-1-methyl-1H-pyrazole-4-carboxamide], in data set [2], the percent reduction in drought damage at 250 g/ha was > 5%. In data set [1], the chromatographic logP stood at 4.36.

In the case of `Cn1nc(C(F)F)c(C(=O)N(Cc2cc(F)ccc2C2CCCC2)C2CC2)c1F` [Compound A9, N-(2-cyclopentyl-5-fluorobenzyl)-N-cyclopropyl-3-(difluoromethyl)-5-fluoro-1-methyl-1H-pyrazole-4-carboxamide], in data set [1], the chromatographic logP came out at 4.21.

Consider `CC(C)c1ccc(F)cc1CN(C(=O)c1c(C(F)F)nn(C)c1F)C1CC1` [Compound A7, N-cyclopropyl-3-(difluoromethyl)-5-fluoro-N-(5-fluoro-2-isopropylbenzyl)-1-methyl-1H-pyrazole-4-carboxamide], for which the chromatographic logP in data set [1] was determined as 3.7. The “EF (BRSNS), efficacy = percentage reduction in the intensity of damage” value in the data set with BRSNS (Brassica napus) (dosage 250 g/ha) was >5%.

What is called chromatographic logP is lipophilicity estimated from chromatographic retention. A low value points to lower lipophilicity.
